Numbered stars: 1 amine (or outer) side, 2 acyl side, 3 side chain; on linkers, the order of the positions; unused ones are H or OH. Square brackets hold non-standard residues; d marks the D form. Side chains are listed from the residue outwards. Peptide text beside a SMILES is read from it. * marks the point of attachment. C20 diacid = O=C(O)CCCCCCCCCCCCCCCCCCC(=O)*; C18 diacid = O=C(O)CCCCCCCCCCCCCCCCC(=O)*; αMePhe(2-F) = C[C@](N)(Cc1ccccc1F)C(=O)O; γGlu = O=C(O)[C@H](CCC(=O)[*:2])N[*:1]; αMeY = C[C@](N)(Cc1ccc(O)cc1)C(=O)O; αMeF = C[C@](N)(Cc1ccccc1)C(=O)O; αMeL = CC(C)C[C@](C)(N)C(=O)O; Orn = NCCC[C@H](N)C(=O)O; AEEA = NCCOCCOCC(=O)O; Aib = CC(C)(N)C(=O)O
Columns and labels:
[1] = target: T1, human Gcg receptor (Homo sapiens, UniProt P47871); assay: [125I]-Glucagon binding (SPA), human Gcg receptor; settings: read-out: hGLcgR Ki, nM (SEM, n)
T1 construct: expressed in transfected cells; crude membranes
Summary of the method: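 Crude membranes from cells expressing the receptor, prepared by hypotonic lysis in 50 mM Tris HCl pH 7.5 with protease inhibitors, homogenization and differential centrifugation, were used in a WGA-bead SPA. Binding buffer: 25 mM HEPES pH 7.4, 2.5 mM CaCl2, 1 mM MgCl2, bacitracin, Tween-20.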

[2] = target: T2, human GIP receptor (Homo sapiens, UniProt P48546); assay: [125I]-GIP binding (SPA), human GIP receptor; settings: read-out: hGIPR Ki, nM (SEM, n)
T2 construct: expressed in transfected cells; crude membranes
T2 sequence (P48546 22-466): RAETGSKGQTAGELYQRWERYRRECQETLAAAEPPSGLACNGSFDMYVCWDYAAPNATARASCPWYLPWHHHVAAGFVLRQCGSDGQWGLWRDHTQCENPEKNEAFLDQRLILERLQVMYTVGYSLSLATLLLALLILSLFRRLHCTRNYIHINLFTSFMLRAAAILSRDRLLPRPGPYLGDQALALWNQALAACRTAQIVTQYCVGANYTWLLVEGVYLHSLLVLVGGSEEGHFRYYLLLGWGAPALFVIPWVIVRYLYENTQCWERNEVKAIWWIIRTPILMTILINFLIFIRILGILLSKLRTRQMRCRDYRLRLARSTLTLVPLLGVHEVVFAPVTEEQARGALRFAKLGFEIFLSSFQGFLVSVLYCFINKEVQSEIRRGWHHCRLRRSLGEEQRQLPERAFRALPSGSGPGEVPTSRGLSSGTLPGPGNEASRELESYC

[3] = target: human GLP-1 receptor (GLP-1R) (Homo sapiens, UniProt P43220); assay: cAMP pharmacological functional assay in presence of casein, hGLP-1R; format: cell-based; settings: HEK293 cells expressing hGLP-1R, 0.1% Casein, geometric mean; read-out: hGLP1R cAMP Rel EC50 nM (SEM, n)
[4] = target: T3, gastric inhibitory peptide receptor (GIPR) (Homo sapiens, UniProt P48546); assay: cAMP pharmacological functional assay in presence of casein, hGIPR; format: cell-based; settings: HEK293 cells expressing hGIPR, 0.1% Casein, geometric mean; read-out: hGIPR cAMP Rel EC50 nM (SEM, n)
T3 sequence (P48546 22-466): T2 sequence (P48546 22-466)

[5] = target: human GLP-1R (Homo sapiens, UniProt P43220); assay: [125I]-GLP-1 binding (SPA), human GLP-1 receptor; design: expressed in transfected cells; crude membranes; settings: read-out: hGLP1R Ki, (nM) (SEM, n)
Summary of the method: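 Ki values are geometric means with SEM over independent replicates on different days, derived from IC50s fitted by four-parameter nonlinear regression. The assay used crude cell membranes in HEPES buffer, pH 7.4, containing CaCl2, MgCl2, bacitracin and TWEEN-20.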

T1 sequence (P47871 26-477): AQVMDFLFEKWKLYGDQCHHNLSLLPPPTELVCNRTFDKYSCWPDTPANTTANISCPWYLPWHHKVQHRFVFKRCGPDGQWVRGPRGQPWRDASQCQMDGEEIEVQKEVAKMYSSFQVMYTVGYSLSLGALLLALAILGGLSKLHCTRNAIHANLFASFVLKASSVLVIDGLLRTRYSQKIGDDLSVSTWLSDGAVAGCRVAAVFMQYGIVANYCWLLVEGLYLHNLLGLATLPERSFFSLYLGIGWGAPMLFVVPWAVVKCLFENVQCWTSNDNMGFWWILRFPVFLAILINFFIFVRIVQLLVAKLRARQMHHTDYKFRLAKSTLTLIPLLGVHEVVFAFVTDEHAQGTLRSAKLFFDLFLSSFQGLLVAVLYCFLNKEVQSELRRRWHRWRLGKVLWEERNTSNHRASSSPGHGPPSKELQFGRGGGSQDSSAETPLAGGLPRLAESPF
Chain of human GLP-1 receptor (GLP-1R) (P43220 24-463): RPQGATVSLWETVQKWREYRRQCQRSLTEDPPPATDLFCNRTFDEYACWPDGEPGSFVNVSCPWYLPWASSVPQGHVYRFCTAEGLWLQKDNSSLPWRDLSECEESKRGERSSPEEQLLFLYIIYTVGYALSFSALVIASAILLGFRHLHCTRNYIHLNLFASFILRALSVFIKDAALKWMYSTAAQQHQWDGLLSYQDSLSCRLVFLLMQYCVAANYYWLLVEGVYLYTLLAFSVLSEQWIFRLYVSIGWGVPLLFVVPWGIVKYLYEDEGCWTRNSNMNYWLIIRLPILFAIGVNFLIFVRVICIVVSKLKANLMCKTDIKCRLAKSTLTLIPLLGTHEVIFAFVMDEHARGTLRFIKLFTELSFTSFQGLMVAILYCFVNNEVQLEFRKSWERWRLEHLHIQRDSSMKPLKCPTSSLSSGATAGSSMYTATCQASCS
Chain of human GLP-1R (P43220 24-463): as above

Row | SMILES | Ki [1] | Ki [2] | EC50 [3] | EC50 [4] | Ki [5]
1 | CC[C@H](C)[C@H](NC(=O)[C@H](CC(C)C)NC(=O)[C@](C)(Cc1ccc(O)cc1)NC(=O)[C@@H](CCC(=O)O)NC(=O)[C@@H](NC(=O)[C@H](Cc1ccccc1)NC(=O)[C@H](C)NC(=O)C(C)(C)NC(=O)[C@H](CCC(N)=O)NC(=O)[C@H](C)NC(=O)[C@H](CCCCNC(=O)COCCOCCNC(=O)COCCOCCNC(=O)CC[C@H](NC(=O)CCCCCCCCCCCCCCCCC(=O)O)C(=O)O)NC(=O)[C@H](CCCN)NC(=O)[C@H](CC(=O)O)NC(=O)[C@H](CC(C)C)NC(=O)[C@](C)(CC(C)C)NC(=O)[C@@H](NC(=O)[C@H](CO)NC(=O)[C@H](C)NC(=O)[C@H](CC(=O)O)NC(=O)[C@H](CO)NC(=O)[C@@H](NC(=O)[C@](C)(Cc1ccccc1F)NC(=O)[C@@H](NC(=O)CNC(=O)[C@H](CCC(=O)O)NC(=O)C(C)(C)NC(=O)[C@@H](N)Cc1ccc(O)cc1)[C@@H](C)O)[C@@H](C)O)[C@@H](C)CC)[C@@H](C)CC)C(=O)N[C@@H](CCC(=O)O)C(=O)NCC(=O)NCC(=O)N1CCC[C@H]1C(=O)N[C@@H](CO)C(=O)N[C@@H](CO)C(=O)NCC(=O)N[C@@H](C)C(=O)N1CCC[C@H]1C(=O)N1CCC[C@H]1C(=O)N1CCC[C@H]1C(=O)N[C@@H](CO)C(N)=O [Example 246] (H-Y[Aib]EGT[αMePhe(2-F)]TSDASI[αMeL]LD[Orn]K([AEEA-AEEA-γGlu-C18 diacid])AQ[Aib]AFI[dE][αMeY]LIEGGPSSGAPPPS-NH2) | > 1010 nM | 0.0509 nM | 0.0144 nM | 0.0258 nM | 0.812 nM
2 | CC[C@H](C)[C@H](NC(=O)[C@H](CC(C)C)NC(=O)[C@H](Cc1ccc(O)cc1)NC(=O)[C@H](CCC(=O)O)NC(=O)[C@@H](NC(=O)[C@H](Cc1ccccc1)NC(=O)[C@H](C)NC(=O)C(C)(C)NC(=O)[C@H](CCC(N)=O)NC(=O)[C@H](C)NC(=O)[C@H](CCCCNC(=O)COCCOCCNC(=O)COCCOCCNC(=O)CC[C@H](NC(=O)CCCCCCCCCCCCCCCCCCC(=O)O)C(=O)O)NC(=O)[C@H](CCCCN)NC(=O)[C@H](CC(=O)O)NC(=O)[C@H](CC(C)C)NC(=O)[C@H](CC(C)C)NC(=O)[C@@H](NC(=O)[C@H](CO)NC(=O)[C@H](Cc1ccc(O)cc1)NC(=O)[C@H](CC(=O)O)NC(=O)[C@H](CO)NC(=O)[C@@H](NC(=O)[C@H](Cc1ccccc1)NC(=O)[C@@H](NC(=O)CNC(=O)CC[C@H](NC(=O)C(C)(C)NC(=O)[C@@H](N)Cc1ccc(O)cc1)C(=O)O)[C@@H](C)O)[C@@H](C)O)[C@@H](C)CC)[C@@H](C)CC)C(=O)N[C@@H](CCC(=O)O)C(=O)NCC(=O)NCC(=O)N1CCC[C@H]1C(=O)N[C@@H](CO)C(=O)N[C@@H](CO)C(=O)NCC(=O)N[C@@H](C)C(=O)N1CCC[C@H]1C(=O)N1CCC[C@H]1C(=O)N1CCC[C@H]1C(=O)N[C@@H](CO)C(N)=O [Example 91] | 540 nM | 1.8 nM | > 5000 nM | 19.2 nM | 5.23 nM
3 | CC[C@H](C)[C@H](NC(=O)[C@H](Cc1ccccc1)NC(=O)[C@H](C)NC(=O)[C@H](CCC(N)=O)NC(=O)[C@H](CCC(N)=O)NC(=O)[C@H](C)NC(=O)[C@H](CCCCNC(=O)COCCOCCNC(=O)COCCOCCNC(=O)CC[C@H](NC(=O)CCCCCCCCCCCCCCCCCCC(=O)O)C(=O)O)NC(=O)[C@H](CCC(=O)O)NC(=O)[C@H](CC(=O)O)NC(=O)[C@H](CC(C)C)NC(=O)[C@](C)(CC(C)C)NC(=O)[C@@H](NC(=O)[C@H](CO)NC(=O)[C@H](Cc1ccc(O)cc1)NC(=O)[C@H](CC(=O)O)NC(=O)[C@H](CO)NC(=O)[C@@H](NC(=O)[C@](C)(Cc1ccccc1)NC(=O)[C@@H](NC(=O)CNC(=O)[C@H](CCC(=O)O)NC(=O)C(C)(C)NC(=O)[C@@H](N)Cc1ccc(O)cc1)[C@@H](C)O)[C@@H](C)O)[C@@H](C)CC)C(=O)N[C@@H](CCC(=O)O)C(=O)N[C@@H](Cc1ccc(O)cc1)C(=O)N[C@@H](CC(C)C)C(=O)N[C@H](C(=O)N[C@@H](CCC(=O)O)C(=O)NC(C)(C)C(=O)NCC(=O)N1CCC[C@H]1C(=O)N[C@@H](CO)C(=O)N[C@@H](CO)C(=O)NCC(=O)N[C@@H](C)C(=O)N1CCC[C@H]1C(=O)N1CCC[C@H]1C(=O)N1CCC[C@H]1C(=O)N[C@@H](CO)C(N)=O)[C@@H](C)CC [Example 122] (H-Y[Aib]EGT[αMeF]TSDYSI[αMeL]LDEK([AEEA-AEEA-γGlu-C20 diacid])AQQAFIEYLIE[Aib]GPSSGAPPPS-NH2) | 43.3 nM | 0.19 nM | 0.076 nM | 0.0923 nM | 3.36 nM
4 | CC[C@H](C)[C@H](NC(=O)[C@H](CCCCN)NC(=O)[C@H](CC(=O)O)NC(=O)[C@H](CC(C)C)NC(=O)[C@H](CC(C)C)NC(=O)[C@@H](NC(=O)[C@H](CO)NC(=O)[C@H](Cc1ccc(O)cc1)NC(=O)[C@H](CC(=O)O)NC(=O)[C@H](CO)NC(=O)[C@@H](NC(=O)[C@H](Cc1ccccc1)NC(=O)[C@@H](NC(=O)CNC(=O)[C@H](CCC(=O)O)NC(=O)C(C)(C)NC(=O)[C@@H](N)Cc1ccc(O)cc1)[C@@H](C)O)[C@@H](C)O)[C@@H](C)CC)C(=O)N[C@@H](C)C(=O)N[C@@H](CCC(N)=O)C(=O)NC(C)(C)C(=O)N[C@@H](C)C(=O)N[C@@H](Cc1ccccc1)C(=O)N[C@H](C(=O)N[C@@H](CCC(=O)O)C(=O)N[C@@H](Cc1ccc(O)cc1)C(=O)N[C@@H](CC(C)C)C(=O)N[C@H](C(=O)N[C@@H](CCC(=O)O)C(=O)NCC(=O)NCC(=O)N1CCC[C@H]1C(=O)N[C@@H](CO)C(=O)N[C@@H](CCCCNC(=O)COCCOCCNC(=O)COCCOCCNC(=O)CC[C@H](NC(=O)CCCCCCCCCCCCCCCCCCC(=O)O)C(=O)O)C(=O)NCC(=O)N[C@@H](C)C(=O)N1CCC[C@H]1C(=O)N1CCC[C@H]1C(=O)N1CCC[C@H]1C(=O)N[C@@H](CO)C(N)=O)[C@@H](C)CC)[C@@H](C)CC [Example 42] (H-Y[Aib]EGTFTSDYSILLDKIAQ[Aib]AFIEYLIEGGPSK([AEEA-AEEA-γGlu-C20 diacid])GAPPPS-NH2) | 160 nM | 0.0514 nM | 1.45 nM | 0.161 nM | 13.2 nM
5 | CC[C@H](C)[C@H](NC(=O)[C@H](CC(C)C)NC(=O)[C@H](Cc1ccc(O)cc1)NC(=O)[C@H](CCC(=O)O)NC(=O)[C@@H](NC(=O)[C@H](Cc1ccccc1)NC(=O)[C@H](CCC(=O)O)NC(=O)C(C)(C)NC(=O)[C@H](CCC(N)=O)NC(=O)[C@H](C)NC(=O)[C@H](CCCCNC(=O)COCCOCCNC(=O)COCCOCCNC(=O)CC[C@H](NC(=O)CCCCCCCCCCCCCCCCCCC(=O)O)C(=O)O)NC(=O)[C@H](CCC(=O)O)NC(=O)[C@H](CC(=O)O)NC(=O)[C@H](CC(C)C)NC(=O)[C@](C)(CC(C)C)NC(=O)[C@@H](NC(=O)[C@H](CO)NC(=O)[C@H](Cc1ccc(O)cc1)NC(=O)[C@H](CC(=O)O)NC(=O)[C@H](CO)NC(=O)[C@@H](NC(=O)[C@](C)(Cc1ccccc1F)NC(=O)[C@@H](NC(=O)CNC(=O)[C@H](CCC(=O)O)NC(=O)C(C)(C)NC(=O)[C@@H](N)Cc1c[nH]cn1)[C@@H](C)O)[C@@H](C)O)[C@@H](C)CC)[C@@H](C)CC)C(=O)N[C@@H](CCC(=O)O)C(=O)NCC(=O)NCC(=O)N1CCC[C@H]1C(=O)N[C@@H](CO)C(=O)N[C@@H](CO)C(=O)NCC(=O)N[C@@H](C)C(=O)N1CCC[C@H]1C(=O)N1CCC[C@H]1C(=O)N1CCC[C@H]1C(=O)N[C@@H](CO)C(N)=O [Example 163] (H-H[Aib]EGT[αMePhe(2-F)]TSDYSI[αMeL]LDEK([AEEA-AEEA-γGlu-C20 diacid])AQ[Aib]EFIEYLIEGGPSSGAPPPS-NH2) | 117 nM | 0.116 nM | 0.0316 nM | 0.121 nM | 10.8 nM

Source: patent publication US12252524B2, “GIP/GLP1 co-agonist compounds” (Eli Lilly and Company, priority 2018, dated 2025)
